Measured values reported in patent US5567734A, “Phenyl-substituted alkylcarboguanidides carrying perfluoroalkyl groups, a process for their preparation, their use as a medicament or a diagnostic agent, and a medicament containing them” (priority 1994, dated 1996).
Where a name gives a salt, the structure may show the parent alone.

What was measured:
[1] = molecular target: T1, Na^+ /H^+ exchanger of rabbit erythrocytes (Oryctolagus cuniculus, UniProt P23791); experiment: Inhibition of the Na^+ /H^+ exchanger of rabbit erythrocytes (Na^+ influx by flame photometry); format: cell-based, rabbit (New Zealand White); conditions: pH 7.4, 37° C., hyperosmolar salt/sucrose medium, cholesterol-fed rabbits, read-out: IC 50, Na^+ /H^+ -exchanger inhibition
T1 construct: endogenous in cells; host or cells: erythrocytes in heparinised blood of cholesterol-fed New Zealand White rabbits (Ivanovas)
T1 sequence (P23791 whole entry): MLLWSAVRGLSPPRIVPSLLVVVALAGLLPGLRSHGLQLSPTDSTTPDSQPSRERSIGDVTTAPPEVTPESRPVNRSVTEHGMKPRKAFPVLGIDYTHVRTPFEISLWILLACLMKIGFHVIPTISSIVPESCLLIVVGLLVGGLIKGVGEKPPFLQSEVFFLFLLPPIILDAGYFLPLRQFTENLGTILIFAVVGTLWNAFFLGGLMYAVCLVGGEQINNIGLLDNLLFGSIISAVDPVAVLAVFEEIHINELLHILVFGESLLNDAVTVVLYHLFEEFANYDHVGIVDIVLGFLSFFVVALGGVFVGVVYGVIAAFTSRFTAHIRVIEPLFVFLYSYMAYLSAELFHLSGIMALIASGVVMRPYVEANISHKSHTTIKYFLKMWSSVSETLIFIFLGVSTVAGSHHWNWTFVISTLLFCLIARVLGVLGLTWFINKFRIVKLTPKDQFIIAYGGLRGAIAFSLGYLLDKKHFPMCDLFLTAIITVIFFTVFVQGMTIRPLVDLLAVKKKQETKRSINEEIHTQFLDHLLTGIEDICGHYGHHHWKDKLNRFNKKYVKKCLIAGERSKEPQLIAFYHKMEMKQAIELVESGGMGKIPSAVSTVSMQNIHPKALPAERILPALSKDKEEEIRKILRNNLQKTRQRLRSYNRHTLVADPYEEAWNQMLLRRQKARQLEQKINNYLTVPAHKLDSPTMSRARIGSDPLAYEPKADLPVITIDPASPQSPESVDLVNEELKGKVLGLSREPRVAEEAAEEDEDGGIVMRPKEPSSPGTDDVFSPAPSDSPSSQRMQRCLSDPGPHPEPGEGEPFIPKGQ
Source text: Inhibition of the Na^+ /H^+ exchanger of rabbit erythrocytes:
New Zealand White rabbits (Ivanovas) were given a standard diet containing 2% cholesterol for 6 weeks in order to activate Na^+ /H^+ exchange and thus render it possible to determine the Na^+ influx into the erythrocytes via Na^+ /H^+ exchange by flame photometry. The blood was removed from the aural arteries and rendered incoagulable using 25 IU/ml potassium heparin. A portion of each sample was used for determining, in duplicate, the hematocrit by centrifugation. Aliquots of in each case 100 μl were used for measuring the initial content of Na^+ in the erythrocytes.
In order to determine the amiloride-sensitive sodium influx, 100 μl of each blood sample were incubated, at pH 7.4 and 37° C., in in each case 5 ml of a hyperosmolar salt/sucrose medium (mmol/l:140 NaCl, 3 KCl, 150 sucrose, 0.1 ouabain, 20 tris(hydroxymethyl)aminomethane). After that, the erythrocytes were washed three times with ice-cold MgCl2 /ouabain solution (mmol/l: 112 MgCl2, 0.1 ouabain), and haemolyzed in 2.0 ml of distilled water. The intracellular content of sodium was determined by flame photometry.
The net influx of Na^+ was calculated from the difference between the initial sodium values and the sodium content of the erythrocytes after incubation. The amiloride-inhibitable sodium influx was given by the difference in the sodium content of the erythrocytes after incubation with and without 3×10^-4 mol/l amiloride. The same procedure was employed for the compounds according to the invention.

rat hearts = conditions: isolated rat hearts; cited from earlier work
[2] = tested on: disturbances of cardiac rhythm; conditions: literature; cited from earlier work

IC50 [1] [nM]	SMILES	other results
50	CC(Cc1cccc(C(F)(F)F)c1)C(=O)N=C(N)N (racemic) [Example 5, 2-Methyl-3-(3-trifluoromethylphenyl)propionoguanidide hydrochloride]	
600	NC(N)=NC(=O)CCc1cccc(C(F)(F)F)c1 [Example 1, 3-(3-Trifluoromethylphenyl)propionoguanidide]	
500	NC(N)=NC(=O)CCc1ccccc1C(F)(F)F [Example 2, 3-(2-Trifluoromethylphenyl)propionoguanidide]	
700	NC(N)=NC(=O)CCc1cccc(OC(F)(F)F)c1 [Example 3, 3-(3-Trifluoromethoxyphenyl)propionoguanidide hydrochloride]	
	N=C(N)NC(=O)c1nc(Cl)c(N)nc1N [amiloride]	suppression of artificially induced ventricular fibrillation (rat hearts): completely suppress; antiarrhythmic effect [2]: only weakly expressed; side effects when treating disturbances of cardiac rhythm [2]: hypotensive and saluretic effects
	CCN(c1nc(N)c(C(=O)NC(=N)N)nc1Cl)C(C)C [ethylisopropyl amiloride, Ethylisopropyl amiloride]	potency relative to amiloride, ventricular fibrillation (rat hearts): even more potent than amiloride
